According to ChEMBL document CHEMBL4354799, “Exploiting Structural Dynamics To Design Open-Flap Inhibitors of Malarial Aspartic Proteases” (J Med Chem, 2019):
Blank lines part the entries; values can stand above or below the molecule they belong to.

Columns and labels:
[1] = target: T1, Plasmepsin II (Plasmodium falciparum, UniProt P46925); assay: Inhibition of Plasmodium falciparum plasmepsin 2 incubated for 10 mins followed by DABCYL-Glu-Arg-Nle-Phe-Leu-Ser-Phe-Pro-EDANS addition and measured after 30 mins by fluorescence method
[2] = target: T1, Plasmepsin II; assay: Inhibition of Plasmodium falciparum plasmepsin 2 by FRET assay
[3] = target: T2, Plasmepsin 4 (Plasmodium falciparum, UniProt Q17SB2); assay: Inhibition of Plasmodium falciparum plasmepsin 4 by FRET assay
[4] = target: T1, Plasmepsin II; assay: Inhibition of Plasmodium falciparum plasmepsin 2 using DABCYL-Glu-Arg-Nle-Phe-Leu-Ser-Phe-Pro-EDANS as substrate by FRET assay
[5] = target: Cathepsin D (Homo sapiens, UniProt P07339); assay: Inhibition of human liver cathepsin D using DABCYL-Glu-Arg-Nle-Phe-Leu-Ser-Phe-Pro-EDANS as substrate by FRET assay
[6] = target: T1, Plasmepsin II; assay: Inhibition of Plasmodium falciparum plasmepsin 2 using Dabcyl-ERNIef:LSFP-EDANS as substrate incubated for 40 mins by FRET assay
[7] = target: T1, Plasmepsin II; assay: Inhibition of Plasmodium falciparum plasmepsin 2 using fluorescently labeled peptide substrate by fluorescence method
[8] = target: T2, Plasmepsin 4; assay: Inhibition of Plasmodium falciparum plasmepsin 4 using fluorescently labeled peptide substrate by fluorescence method
[9] = target: T1, Plasmepsin II; assay: Inhibition of Plasmodium falciparum plasmepsin 2 preincubated for 30 mins followed by DABCYL-Glu-Arg-Nle-Phe-Leu-Ser-Phe-Pro-EDANS addition measured every minute for 8 to 15 mins by FRET assay

T1 sequence (P46925 whole entry): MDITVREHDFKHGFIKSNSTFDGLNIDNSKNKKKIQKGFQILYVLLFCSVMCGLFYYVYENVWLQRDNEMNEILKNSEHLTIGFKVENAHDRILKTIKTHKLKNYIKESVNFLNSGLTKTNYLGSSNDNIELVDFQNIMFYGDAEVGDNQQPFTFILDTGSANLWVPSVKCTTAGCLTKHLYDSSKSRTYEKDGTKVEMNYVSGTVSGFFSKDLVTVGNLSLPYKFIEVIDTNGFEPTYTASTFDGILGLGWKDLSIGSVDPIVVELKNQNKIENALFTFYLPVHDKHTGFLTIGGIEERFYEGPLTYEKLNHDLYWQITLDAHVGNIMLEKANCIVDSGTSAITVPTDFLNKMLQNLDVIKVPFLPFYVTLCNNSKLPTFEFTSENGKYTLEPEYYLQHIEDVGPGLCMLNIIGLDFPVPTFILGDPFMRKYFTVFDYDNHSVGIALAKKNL
Sequence of Cathepsin D (P07339 65-162 limits assumed): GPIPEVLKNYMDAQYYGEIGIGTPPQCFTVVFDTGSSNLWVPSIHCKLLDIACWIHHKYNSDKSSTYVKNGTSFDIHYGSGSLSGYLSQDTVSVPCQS
Sequence of Cathepsin D (P07339 169-412 limits assumed): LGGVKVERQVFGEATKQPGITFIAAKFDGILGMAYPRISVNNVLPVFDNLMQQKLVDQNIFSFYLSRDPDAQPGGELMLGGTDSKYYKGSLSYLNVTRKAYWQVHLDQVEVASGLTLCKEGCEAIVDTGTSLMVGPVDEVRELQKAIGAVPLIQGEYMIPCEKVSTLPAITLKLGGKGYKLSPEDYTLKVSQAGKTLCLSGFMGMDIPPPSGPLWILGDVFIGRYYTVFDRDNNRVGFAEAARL
T2 sequence (Q17SB2 whole entry): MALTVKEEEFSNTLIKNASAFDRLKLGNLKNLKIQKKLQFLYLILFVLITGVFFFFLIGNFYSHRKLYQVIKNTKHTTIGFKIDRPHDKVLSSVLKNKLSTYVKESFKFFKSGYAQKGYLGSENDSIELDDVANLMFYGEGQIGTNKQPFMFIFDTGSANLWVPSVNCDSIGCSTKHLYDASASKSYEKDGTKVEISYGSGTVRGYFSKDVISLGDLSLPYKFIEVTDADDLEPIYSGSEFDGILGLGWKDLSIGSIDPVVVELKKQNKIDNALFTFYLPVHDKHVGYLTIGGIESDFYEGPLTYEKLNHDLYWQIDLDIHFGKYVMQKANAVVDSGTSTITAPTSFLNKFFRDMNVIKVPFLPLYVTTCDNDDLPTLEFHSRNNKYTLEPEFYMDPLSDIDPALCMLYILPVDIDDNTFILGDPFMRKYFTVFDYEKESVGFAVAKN

- Ki [1]: 50 to 680 nM
SMILES: O=C(Nc1cc(C(F)(F)F)ccc1Cl)Nc1cc(Cl)ccc1Oc1cc(Cl)c(Cl)cc1S(=O)(=O)O

SMILES: c1ccc2c(CCOc3cc4c(cc3CCCSc3nc5ccccc5s3)C3CCC4N3)cccc2c1 (centres undefined)
- IC50 [2]: 4000 nM
- IC50 [3]: 33000 nM

SMILES: CCCC(=O)NN
- IC50 [4]: 1000 to 2500 nM
- IC50 [5]: 1000 to 2500 nM

SMILES: CC(=O)N1CC2CC(c3ccc(CCOc4cc(Cl)ccc4Cl)cc3)=C(C(=O)N(C)CCc3ccccc3)C(C1)N2 (centres undefined)
- IC50 [6]: 10 to 100 nM

- IC50 [7]: 5000 nM
SMILES: CCCCCN(CCCCC)CC(O)c1cc2c(c3ccccc13)CCCC2 (centres undefined)

- Ki [1]: 50 to 680 nM
SMILES: O=C(Nc1ccc(Cl)c(Cl)c1)Nc1cc(Cl)ccc1Oc1cc(Cl)c(Cl)cc1S(=O)(=O)O

SMILES: O=S(=O)(c1ccc(CCCCC2CCC2)cc1)C1C2CCC(N2)C1NCc1ccc2ccccc2c1 (centres undefined)
- IC50 [7]: 170 nM
- IC50 [8]: 180 nM

- IC50 [6]: < 100 nM
SMILES: O=C(C1=C(c2ccc(CCCOc3cc(F)ccc3Br)cc2)CCNC1)N(Cc1ccccc1Cl)C1CC1

SMILES: c1ccc(NNc2ccccc2)cc1 [HYDRAZOBENZENE]
- IC50 [4]: 1000 to 2500 nM
- IC50 [5]: 1000 to 2500 nM

- IC50 [9]: > 200000 nM
SMILES: CCN(CC)CCc1nnn(-c2ccc(C)cc2)c1-c1ccc(-c2ccc(OC)cc2)cc1

- Ki [1]: 50 to 680 nM
SMILES: O=C(Nc1cccc(C(F)(F)F)c1)Nc1ccc(Oc2ccc(Cl)cc2Cl)cc1S(=O)(=O)O

SMILES: CC(C)(C)c1ccc(C(=O)N(Cc2ccc(-c3ccccc3)cc2)C2CCN(Cc3ccccc3)CC2)cc1
- IC50 [6]: > 20000 nM

SMILES: CC(=O)N1CC2CC(c3ccc(CCOc4ccc(C(C)(C)C)cc4C)cc3)=C(C(=O)N(C)CCc3ccccc3)C(C1)N2 (centres undefined)
- IC50 [6]: 10 to 100 nM

- IC50 [7]: 19000 nM
SMILES: CC(C)CCCN(CCCC(C)C)CC(O)c1cc2c(c3ccccc13)CCCC2 (centres undefined)

SMILES: O=S(=O)(c1ccc(CCCCC2CCCCC2)cc1)C1C2CCC(N2)C1NCc1ccc2ccccc2c1 (centres undefined)
- IC50 [7]: 380 nM
- IC50 [8]: 760 nM

SMILES: CCc1ccc(C(=O)N(Cc2ccc(-c3ccccc3)cc2)C2CCN(Cc3ccccc3)CC2)cc1
- IC50 [6]: 15600 nM

SMILES: CCCCCc1ccc(C(=O)N(Cc2ccc(-c3ccccc3)cc2)C2CCN(Cc3ccccc3)CC2)cc1
- IC50 [6]: 70 to 90 nM

- IC50 [6]: 100 to 10000 nM
SMILES: O=C(C1=C(c2ccc(CCCOc3c(F)ccc(F)c3F)cc2)CCNC1)N(Cc1ccccc1Cl)C1CC1

SMILES: CCCCOc1ccc(C(=O)N(Cc2ccc(-c3ccccc3)cc2)C2CCN(Cc3ccccc3)CC2)cc1
- IC50 [6]: 1700 nM

SMILES: CCCCCCCCCCc1ccc(S(=O)(=O)C2C3CCC(N3)C2NCc2ccc3ccccc3c2)cc1 (centres undefined)
- IC50 [7]: 350 nM
- IC50 [8]: 3190 nM

- Ki [1]: 50 to 680 nM
SMILES: O=C(Nc1ccc(Oc2ccc(Cl)cc2)c(Cl)c1)Nc1cc(Cl)c(Cl)cc1S(=O)(=O)O

SMILES: CC(=O)N1CC2CC(c3ccc(CCOc4ccccc4Cl)cc3)=C(C(=O)N(C)CCc3ccccc3)C(C1)N2 (centres undefined)
- IC50 [6]: 100 to 10000 nM

SMILES: CCCCCc1ccc(S(=O)(=O)C2C3CCC(N3)C2NCc2ccc3ccccc3c2)cc1 (centres undefined)
- IC50 [7]: 680 nM
- IC50 [8]: 240 nM

SMILES: CCCCCCc1ccc(S(=O)(=O)C2C3CCC(N3)C2NCc2ccc3ccccc3c2)cc1 (centres undefined)
- IC50 [7]: 130 nM
- IC50 [8]: 50 nM

SMILES: CC(=O)N1CC2CC(c3ccc(CCOc4cc(Cl)cc(Cl)c4)cc3)=C(C(=O)N(C)CCc3ccccc3)C(C1)N2 (centres undefined)
- IC50 [6]: 10 to 100 nM

- Ki [1]: 50 to 680 nM
SMILES: O=C(Nc1ccc(Cl)c(C(F)(F)F)c1)Nc1cc(Cl)c(Oc2ccc(Cl)cc2)cc1S(=O)(=O)O

SMILES: CCCCCCCCc1ccc(S(=O)(=O)C2C3CCC(N3)C2NCc2ccc3ccccc3c2)cc1 (centres undefined)
- IC50 [7]: 70 nM
- IC50 [8]: 430 nM

SMILES: COc1cccc(OCCc2ccc(C3=C(C(=O)N(C)CCc4ccccc4)C4CN(C(C)=O)CC(C3)N4)cc2)c1 (centres undefined)
- IC50 [6]: 10 to 100 nM

SMILES: CC(C)CCCCc1ccc(S(=O)(=O)C2C3CCC(N3)C2NCc2ccc3ccccc3c2)cc1 (centres undefined)
- IC50 [7]: 30 nM
- IC50 [8]: 90 nM

SMILES: CCCCc1ccc(S(=O)(=O)C2C3CCC(N3)C2NCc2ccc3ccccc3c2)cc1 (centres undefined)
- IC50 [7]: 4190 nM
- IC50 [8]: 1480 nM

SMILES: CC(=O)N1CC2CC(c3ccc(CCOc4cccc(Br)c4)cc3)=C(C(=O)N(C)CCc3ccccc3)C(C1)N2 (centres undefined)
- IC50 [6]: 10 to 100 nM

SMILES: CC(=O)N1CC2CC(c3ccc(CCOc4ccc(C)cc4C(C)(C)C)cc3)=C(C(=O)N(C)CCc3ccccc3)C(C1)N2 (centres undefined)
- IC50 [6]: 100 to 10000 nM

- IC50 [6]: 100 to 10000 nM
SMILES: Cc1ccc(C)c(OCCCc2ccc(C3=C(C(=O)N(Cc4ccccc4Cl)C4CC4)CNCC3)cc2)c1C

- IC50 [9]: 600 nM
SMILES: CCCCCc1ccc(-n2nnc(CCN(CC)CC)c2-c2ccc(-c3ccc(OC)cc3)cc2)c(Cl)c1

- Ki [1]: 50 to 680 nM
SMILES: O=C(Nc1cc(C(F)(F)F)cc(C(F)(F)F)c1)Nc1c(Oc2ccc(Cl)cc2)ccc(Cl)c1S(=O)(=O)O

- IC50 [9]: 600 nM
SMILES: CCCCCc1ccc(-n2nnc(CCN(CC)CC)c2-c2ccc(-c3ccc(OC)cc3)cc2)cc1

- Ki [1]: 50 to 680 nM
SMILES: O=C(Nc1ccc(Cl)c(C(F)(F)F)c1)Nc1cc(Cl)ccc1Oc1ccc(Cl)cc1S(=O)(=O)O

- IC50 [2]: 79000 nM
SMILES: c1ccc(-c2nnc(SCCOc3cc4c(cc3OCCc3cccc5ccccc35)C3CCC4N3)o2)cc1 (centres undefined)

- Ki [1]: 50 to 680 nM
SMILES: O=C(Nc1ccc(Oc2ccc(Cl)cc2)c(Cl)c1)Nc1cc(C(F)(F)F)c(Cl)cc1S(=O)(=O)O

SMILES: CC(=O)N1CC2CC(c3ccc(CCOc4cccc(OC(F)(F)F)c4)cc3)=C(C(=O)N(C)CCc3ccccc3)C(C1)N2 (centres undefined)
- IC50 [6]: 10 to 100 nM

SMILES: CCCCCCc1ccc(S(=O)(=O)[C@@H]2[C@H](NCc3cccc(Br)c3)[C@@H]3CC[C@H]2N3)cc1
- IC50 [7]: ≤ 45 nM
- IC50 [8]: 10 nM

SMILES: CCCCCCCc1ccc(S(=O)(=O)C2C3CCC(N3)C2NCc2ccc3ccccc3c2)cc1 (centres undefined)
- IC50 [7]: 50 nM
- IC50 [8]: 210 nM

SMILES: CCCCCCCCCc1ccc(S(=O)(=O)C2C3CCC(N3)C2NCc2ccc3ccccc3c2)cc1 (centres undefined)
- IC50 [7]: 150 nM
- IC50 [8]: 1360 nM

SMILES: CC(=O)N1CC2CC(c3ccc(CCOc4ccccc4C(C)(C)C)cc3)=C(C(=O)N(C)CCc3ccccc3)C(C1)N2 (centres undefined)
- IC50 [6]: 10 to 100 nM

SMILES: CCCCCCCCCCCc1ccc(S(=O)(=O)C2C3CCC(N3)C2NCc2ccc3ccccc3c2)cc1 (centres undefined)
- IC50 [7]: 1950 nM
- IC50 [8]: 5350 nM

SMILES: c1ccc2c(CCOc3cc4c(cc3OCCSc3nc5ccccc5s3)C3CCC4N3)cccc2c1 (centres undefined)
- IC50 [2]: 3000 nM
- IC50 [3]: 15000 nM

SMILES: O=S(=O)(c1ccc(CCCCC2CCCC2)cc1)C1C2CCC(N2)C1NCc1ccc2ccccc2c1 (centres undefined)
- IC50 [7]: 190 nM
- IC50 [8]: 210 nM

- IC50 [2]: 7000 nM
SMILES: CCCCCc1ccc(N(CC2CCC(O)C(F)(F)C2)C(=O)Cc2ccc3ccccc3c2)cc1 (centres undefined)

SMILES: NNC(=O)c1ccccc1[N+](=O)[O-]
- IC50 [4]: 1000 to 2500 nM
- IC50 [5]: 1000 to 2500 nM

- IC50 [6]: < 100 nM
SMILES: O=C(C1=C(c2ccc(CCCOc3ccccc3Cl)cc2)CCNC1)N(Cc1ccccc1Cl)C1CC1

SMILES: Clc1ccc2sc(SCCCc3cc4c(cc3OCCc3cccc5ccccc35)C3CCC4N3)nc2c1 (centres undefined)
- IC50 [2]: 2000 nM
- IC50 [3]: 10000 nM

SMILES: CC(=O)N1CC2CC(c3ccc(CCOc4cc(F)ccc4Br)cc3)=C(C(=O)N(C)CCc3ccccc3)C(C1)N2 (centres undefined)
- IC50 [6]: < 10 nM

- IC50 [9]: 5200 nM
SMILES: CCCCCc1ccc(Cn2nnc(CCN(CC)CC)c2-c2ccc(-c3ccc(OC)cc3)cc2)cc1

SMILES: COc1ccccc1C(=O)NN
- IC50 [4]: 1000 to 2500 nM
- IC50 [5]: 1000 to 2500 nM

SMILES: CC(=O)N1CC2CC(c3ccc(CCOc4ccccc4C(C)C)cc3)=C(C(=O)N(C)CCc3ccccc3)C(C1)N2 (centres undefined)
- IC50 [6]: 10 to 100 nM

SMILES: COc1cc2c(cc1OCCc1cccc3ccccc13)C1CCC2N1 (centres undefined)
- IC50 [2]: 24000 nM
- IC50 [3]: 81000 nM

- IC50 [6]: 100 to 10000 nM
SMILES: CC(=O)N1CC2CC(c3ccc(CCOc4cccc(Cl)c4)cc3)=C(C(=O)N(C)CCc3ccccc3)C(C1)N2 (centres undefined)

SMILES: c1cc(NNc2ccncc2)ccn1
- IC50 [4]: 1000 to 2500 nM
- IC50 [5]: 1000 to 2500 nM

SMILES: CCCCCCCCCCCC(=O)N(Cc1ccc(-c2ccccc2)cc1)C1CCN(Cc2ccccc2)CC1
- IC50 [6]: 1800 nM

- Ki [1]: 50 to 680 nM
SMILES: O=C(Nc1ccc(Cl)c(Cl)c1)Nc1cc(Cl)c(Oc2ccc(Cl)cc2)cc1S(=O)(=O)O

SMILES: NNC(=O)C(c1ccccc1)c1ccccc1
- IC50 [4]: 1000 to 2500 nM
- IC50 [5]: 1000 to 2500 nM
